Patent US20240376108A1, “SALT AND CRYSTAL FORM OF PYRAZOLE-CONTAINING POLYCYCLIC DERIVATIVE, AND PREPARATION METHOD THEREFOR AND USE THEREOF” (Shanghai Hansoh Biomedical Co., Ltd., priority 2021, published 2024)

How the values were obtained:
[1] = Metabolic stability in liver microsome (human); format: in vitro ADME; details: for Human Remaining (%, 60 min): human liver microsome
Protocol: (§1) Test Example 5. Assay of Metabolic Stability in Liver Microsome
(§2) 1. Experimental objective: The objective of the experiment is to determine the stability of the compounds of the Examples in liver microsome of mouse, rat, dog and human.
(§3) 2.1 Formulation of the working solution of the compound: Formulation of the working solution of the compound: The stock solution of the compound was added to phosphate buffer, and the final concentration was 20 μM.
(§4) 2.2 Formulation of the working solution of liver microsome: Liver microsome was diluted with 100 mM phosphate buffer to obtain a final concentration of 0.625 mg/mL.
(§5) 2.3 Formulation of NADPH and UDPGA: NADPH (reduced nicotinamide adenine dinucleotide phosphate) and UDPGA (uridine diphosphate glucuronic acid) were weighed respectively, followed by addition of 100 mM phosphate buffer. The final concentrations were 20 mM.
(§6) 2.4 Formulation of the channel-forming reagent: 1 mg of Alamethicin was weighed, to which 200 μL of DMSO was added to obtain a 5 mg/mL solution. The solution was diluted with phosphate buffer to obtain a final concentration of 50 μg/mL.
(§7) 2.5 Formulation of the reaction stop solution: Stop solution: Cold acetonitrile containing 100 ng/mL labetalol hydrochloride and 400 ng/mL tolbutamide as internal standards.
(§8) 2.6 Incubation procedure: 400 μL of the prepared liver microsome, 25 μL of the working solution of the compound and 25 μL of Alamethicin were added to a 96-well plate successively, which was then pre-incubated at 37° C. for 10 minutes. 50 μL of the prepared NADPH/UDPGA was added to initiate the reaction, and the plate was incubated at 37° C. The total volume of the reaction system was 500 μL. The final contents of the components were as follows:
(§9) 2.7.1 Chromatographic conditions: • Instrument: Shimadzu LC-30 AD; Chromatographic column: XBridge® C18 (50*4.6 mm, particle size: 5 μm); • Mobile phase: A: 0.1% formic acid solution, B: methanol • Eluent gradient: 0.2˜1.6 min 5% A to 95% A, 3.0˜3.1 min 95% A to 5% A • Running time: 4.0 min.
(§10) 2.7.2 Mass spectrometry conditions: • Instrument: API5500 liquid chromatography-mass spectrometer, AB Sciex; • Ion source: Electrospray ionization source (ESI); Drying gas: N2, temperature: 500° C.; • Electrospray voltage: 5000V; Detection method: Positive ion detection; • Scanning mode: Mode of reaction monitoring (MRM).

[2] = system: BALB/c mice; experiment: Taste sensitivity assay in BALB/c mice (quinine solution intake); format: in vivo; details: 30 mpk; for Solution consumption of single mouse, Quinine solution: 3 mmol/L quinine hydrochloride, 30 min
From the text: Test Example 9. Taste Sensitivity Assay in BALB/c Mice
1. Experimental objective: In this assay, compounds with less toxic and side effects on animal taste were screened by quinine bitter solution experiment.
2.2 Reagents: Quinine monohydrochloride dihydrate (6119-47-7, Adamas).
2.3 Animals: BALB/c mice, 6 to 8 weeks old, ♂, purchased from Shanghai SIPPR-BK Laboratory Animal Co., Ltd.
3.1 Animal screening: One day before the experiment, all BALB/c mice were weighed, and animals with too high or too low body weight were excluded.
3.2 Grouping and water deprivation: BALB/c mice were randomly grouped according to body weight, and were deprived of water 12 to 16 hours before administration with no fasting.
3.3 Formulation of aqueous solution of quinine: An appropriate amount of quinine monohydrochloride dihydrate was weighed and formulated into an aqueous solution quinine hydrochloride (concentration: 3 mmol/L) with ultrapure water for later use.
3.4 Formulation of test compound: An appropriate amount of the test compound was weighed and formulated into the target concentration with the corresponding solvent according to the experimental design for later use.
3.5 Administration and quinine solution intake assay in animal: Administration and fasting: On the day of the experiment, the animals were weighed and fasted, bedding was changed, and the compounds were administered according to the experimental design.
1. The corresponding clean mouse drinking bottle was rinsed 2 to 3 times with ultrapure water and the formulated 3 mmol/L aqueous solution of quinine hydrochloride respectively. The bottle was filled and weighed, and the weight was recorded as Wi0.
2. According to the experimental design, a certain period after administration, the filled bottle was gently placed in the corresponding mouse cage, and the timing was started. After 30 min, the bottle was gently taken out and weighed, and the weight was recorded as Wi30.
3. Calculation of solution consumption of animals in each group: ΔWW(g)=[…]; calculation of solution consumption of single mouse: ΔpWW(g)=ΔWW/N, N is the number of animals in each group.
4. Dysgeusia rate=(ΔpWW of the group in which the drinking water was the aqueous solution of quinine hydrochloride and the test compound was administered at the same time−ΔpWW of the group in which the drinking water was the aqueous solution of quinine hydrochloride and the solvent control was administered at the same time)/(ΔpWW of the group in which the drinking water was ultrapure water and the solvent control was administered at the same time−ΔpWW of the group in which the drinking water was the aqueous solution of quinine hydrochloride and the solvent control was administered at the same time)×100%. Data processing was performed with software such as Excel.

[3] = Metabolic stability in liver microsome (rat); format: in vitro ADME; details: for Rat Remaining (%, 60 min): rat liver microsome
Protocol: as §1, §2, §3, §4, §5, §6, §7, §8, §9, §10

[4] = Metabolic stability in liver microsome (mouse); format: in vitro ADME
Protocol: as §1, §2, §3, §4, §5, §6, §7, §8, §9, §10

[5] = Metabolic stability in liver microsome (dog); format: in vitro ADME; details: for Dog Remaining (%, 60 min): dog liver microsome
Protocol: as §1, §2, §3, §4, §5, §6, §7, §8, §9, §10

SMILES | Human t1/2 ([1]; human liver microsome 0.5 mg/mL, compound 1 μM, NADPH/UDPGA) | Human Remaining (%, 60 min) [1] [%] | Dysgeusia rate [2] [%] | Solution consumption of single mouse, Quinine solution [2] [g] | Rat Remaining (%, 60 min) [3] [%] | Mouse Remaining (%, 60 min) [4] [%] | Dog t1/2 ([5]; dog liver microsome 0.5 mg/mL, compound 1 μM, NADPH/UDPGA) [h] | Dog Remaining (%, 60 min) [5] [%] | Rat t1/2 ([3]; rat liver microsome 0.5 mg/mL, compound 1 μM, NADPH/UDPGA)
O=C(Cn1c(=O)c2ccc(C(F)(F)F)nc2n2nc(Br)cc12)Nc1ccc(F)cn1 [Example 15, 2-(2-bromo-5-oxo-8-(trifluoromethyl)pyrazolo[1,5-a]pyrido[3,2-e]pyrimidin-4(5H)-yl)-N-(5-fluoropyridin-2-yl)acetamide] | ∞ | 100.4 | −3.77 | 0.048 | 102.3 | 92.5 | 15.62 | 96.0 | 
N#Cc1cc2n(CC(=O)Nc3ccc(F)cn3)c(=O)c3ccc(C(F)(F)F)nc3n2n1 [Example 17, 2-(2-Cyano-5-oxo-8-(trifluoromethyl)pyrazolo[1,5-a]pyrido[3,2-e]pyrimidin-4(5H)-yl)-N-(5-fluoropyridin-2-yl)acetamide] |  | 101.2 | −2.26 | 0.056 | 106.4 | 91.6 |  | 99.0 | ∞
O=C(Cn1c(=O)c2ccc(C(F)(F)F)nc2n2nccc12)Nc1ccc(F)cn1 [Example 18, N-(5-Fluoropyridin-2-yl)-2-(5-oxo-8-(trifluoromethyl)pyrazolo[1,5-a]pyrido[3,2-e]pyrimidin-4(5H)-yl)acetamide] |  | 97.5 | −9.81 | 0.016 | 98.9 | 99.3 |  | 93.4 | 
